Laboratory results as given in patent US20230017532A1 (Hoffmann-La Roche Inc., priority 2018, published 2023).
Where a name gives a salt, the structure may show the parent alone.

test system: Acinetobacter baumannii ATCC17978; test: Antimicrobial susceptibility testing: 90% growth inhibitory concentration (IC90) determination, Iso-Sensitest broth, OD 600 nm; assay type: cell-based; settings: Acinetobacter baumannii, ATCC17978, 16 h, 90% growth inhibitory concentration, Acinetobacter baumannii ATCC17978, Iso-Sensitest broth, OD 600 nm over 16 h; read-out: ATCC 17978 IC90
In short: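 Growth of bacteria (~5×10^5 CFU/ml, Iso-Sensitest medium, 35±2 °C) was followed by OD at 600 nm at 20-min intervals over 16 h against a 10-point twofold compound series (e.g. 50–0.097 μM final). Concentration giving 90% inhibition in log phase was reported.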

IC90 | SMILES
0.19 µM | CCc1cc(Nc2nccn3c(-c4ccc(OC)c(F)c4F)cnc23)ccc1C(=O)NCCCCCNCC(=O)O [Example 50, (5-(4-((3-(2,3-difluoro-4-methoxyphenyl)imidazo[1,2-a]pyrazin-8-yl)amino)-2-ethylbenzamido)pentyl)glycine hydrochloride]
0.6 µM | COc1ccc(-c2cnc3c(Nc4ccc(C(=O)NCCCOCC(=O)N5CCNCC5)c(C)c4)nccn23)cc1F [Example 118, 4-[[3-(3-fluoro-4-methoxyphenyl)imidazo[1,2-a]pyrazin-8-yl]amino]-2-methyl-N-[3-(2-oxo-2-piperazin-1-ylethoxy)propyl] benzamide; hydrochloride]
0.58 µM | COc1ccc(-c2cnc3c(Nc4ccc(C(=O)NCCOCCN5CCNCC5)c(C)c4)nccn23)cc1F [Example 113, 4-[[3-(3-fluoro-4-methoxyphenyl)imidazo[1,2-a]pyrazin-8-yl]amino]-2-methyl-N-[2-(2-piperazin-1-ylethoxy)ethyl] benzamide; hydrochloride]
0.12 µM | COc1ccc(-c2cnc3c(Nc4ccc(C(=O)NCCOCCN(C)C)c(Cl)c4)nccn23)c(F)c1F [Example 2, 2-chloro-4-[[3-(2,3-difluoro-4-methoxy-phenyl)imidazo[1,2-a]pyrazin-8-yl]amino]-N-[2-[2-(dimethylamino)ethoxy]ethyl]benzamide;2,2,2-trifluoroacetic acid]
1.1 µM | CN(CCOCCN1CCC(C(=O)O)CC1)C(=O)c1ccc(Nc2nccn3c(-c4ccc(OCC#N)c(F)c4F)cnc23)cc1Cl [Example 175, 1-[2-[2-[[2-chloro-4-[[3-[4-(cyanomethoxy)-2,3-difluorophenyl]imidazo[1,2-a]pyrazin-8-yl]amino]benzoyl]-methylamino]ethoxy]ethyl] piperidine-4-carboxylic acid; formic acid]
0.54 µM | CN(CCOCCN1CCNCC1)C(=O)c1ccc(Nc2nccn3c(-c4ccc(OC(F)F)cc4)cnc23)cc1Cl [Example 162, 2-chloro-4-[[3-[4-(difluoromethoxy)phenyl]imidazo [1,2-a]pyrazin-8-yl]amino]-N-methyl-N-[2-(2-piperazin-1-yl-ethoxy)ethyl] benzamide; hydrochloride]
0.76 µM | COc1ccc(-c2cnc3c(Nc4ccc(C(=O)N(C)CCOCCN5CCN(C6CC6)CC5)c(C)c4)nccn23)cc1F [Example 130, N-[2-[2-(4-cyclopropyl-piperazin-1-yl)ethoxy]ethyl]-4-[[3-(3-fluoro-4-methoxyphenyl)imidazo[1,2-a]pyrazin-8-yl]amino]-N,2-dimethyl-benzamide]
0.59 µM | CCc1cc(Nc2nccn3c(-c4ccc(OC(F)F)c(F)c4F)cnc23)ccc1C(=O)NCCNCCO [Example 174, 4-[[3-[4-(difluoromethoxy)-2,3-difluorophenyl]imidazo[1,2-a]pyrazin-8-yl]amino]-2-ethyl-N-[2-(2-hydroxy-ethylamino)ethyl]benzamide; hydrochloride]
1.3 µM | COc1ccc(-c2cnc3c(Nc4ccc(C(=O)NCCOCCn5nccn5)c(C)c4)nccn23)cc1 [Example 147, 4-[[3-(4-methoxyphenyl)imidazo[1,2-a]pyrazin-8-yl]amino]-2-methyl-N-[2-[2-(triazol-2-yl)ethoxy)ethyl] benzamide]
0.17 µM | C#CCOc1ccc(-c2cnc3c(Nc4ccc(C(=O)NCCCNCCO)c(CC)c4)nccn23)c(F)c1F [Example 73, 4-[[3-(2,3-difluoro-4-prop-2-ynoxy-phenyl)imidazo[1,2-a]pyrazin-8-yl]amino]-2-ethyl-N-[3-(2-hydroxyethylamino)propyl]benzamide]
2.3 µM | N#CCOc1ccc(-c2cnc3c(Nc4ccc(C(=O)NCCOCCN5CCNC(C(=O)O)C5)c(Cl)c4)nccn23)c(F)c1F (stereo not drawn) [Example 177, 4-[2-[2-[[2-chloro-4-[[3-[4-(cyanomethoxy)-2,3-difluorophenyl]imidazo[1,2-a]pyrazin-8-yl]amino]benzoyl]amino]ethoxy]ethyl]piperazine-2-carboxylic acid; formic acid]
0.37 µM | COc1ccc(-c2cnc3c(Nc4ccc(C(=O)NCCOCCN)c(CC(F)F)c4)nccn23)cc1F [Example 173, N-[2-(2-aminoethoxy)ethyl]-2-(2,2-difluoroethyl)-4-[[3-(3-fluoro-4-methoxyphenyl)imidazo[1,2-a]pyrazin-8-yl]amino] benzamide; formic acid]
1.1 µM | COc1ccc(-c2cnc3c(Nc4ccc(C(=O)NCCCNCC[C@H](N)C(=O)O)c(C)c4)nccn23)c(F)c1F [Example 187, (2S)-2-amino-4-[3-[[4-[[3-(2,3-difluoro-4-methoxyphenyl)imidazo[1,2-a]pyrazin-8-yl]amino]-2-methyl-benzoyl]amino]propylamino] butanoic acid]
0.28 µM | CCc1cc(Nc2nccn3c(-c4ccc(OC(F)F)c(F)c4F)cnc23)ccc1C(=O)NCCNCCN [Example 170, N-[2-(2-aminoethylamino)ethyl]-4-[[3-[4-(difluoro-methoxy)-2,3-difluorophenyl]imidazo[1,2-a]pyrazin-8-yl]amino]-2-ethylbenzamide; hydrochloride]
0.47 µM | Cc1cc(Nc2nccn3c(-c4ccc(OC(F)F)cc4)cnc23)ccc1C(=O)NCCOCCN1CC[C@H]2COC[C@@H]2C1 [Example 82, N-[2-[2-[(3aS, 7aR)-3,3a,4,6,7,7a-hexahydro-1H-furo[3,4-c]pyridin-5-yl]ethoxy]ethyl]-4-[[3-[4-(difluoromethoxy)phenyl]imidazo [1,2-a]pyrazin-8-yl]amino]-2-methylbenzamide]
0.046 µM | C#CCOc1ccc(-c2cnc3c(Nc4ccc(C(=O)NCCOCCN)c(CC)c4)nccn23)c(F)c1F [Example 69, N-(2-(2-aminoethoxy)ethyl)-4-((3-(2,3-difluoro-4-(prop-2-yn-1-yloxy)phenyl)imidazo[1,2-a]pyrazin-8-yl)amino)-2-ethylbenzamide]
0.29 µM | COc1ccc(-c2cnc3c(Nc4ccc5c(c4)CCN(CCOCCN)C5=O)nccn23)c(F)c1F [Example 171, 2-[2-(2-aminoethoxy)ethyl]-6-[[3-(2,3-difluoro-4-methoxyphenyl)imidazo[1,2-a]pyrazin-8-yl]amino]-3,4-dihydroiso-quinolin-1-one;2,2,2-trifluoroacetic acid]
0.64 µM | COc1ccc(-c2cnc3c(Nc4ccc(C(=O)NCCCOCC(=O)N5CCOC(CN)C5)c(C)c4)nccn23)cc1F (stereo not drawn) [Example 124, N-[3-[2-[2-(aminomethyl)morpholin-4-yl]-2-oxoethoxy]propyl]-4-[[3-(3-fluoro-4-methoxyphenyl)imidazo[1,2-a]pyrazin-8-yl]amino]-2-methylbenzamide; hydrochloride]
0.75 µM | Cc1cc(Nc2nccn3c(-c4ccc(OC(F)F)cc4)cnc23)ccc1C(=O)NCCOCCN1C(=O)COC1=O [Example 12, 4-((3-(4-(difluoromethoxy)phenyl)imidazo[1,2-a]pyrazin-8-yl)amino)-N-(2-(2-(2,4-dioxooxazolidin-3-yl)ethoxy)ethyl)-2-methylbenzamide]
0.12 µM | Cc1cc(Nc2nccn3c(-c4ccc(OCC#CCO)cc4)cnc23)ccc1C(=O)NCCOCCN [Example 29, N-[2-(2-aminoethoxy)ethyl]-4-[[3-[4-(4-hydroxybut-2-ynoxy)phenyl]imidazo[1,2-a]pyrazin-8-yl]amino]-2-methyl-benzamide formate]
0.29 µM | COc1ccc(-c2cnc3c(Nc4ccc(C(=O)NCCOCCN5CCC(F)CC5)c(C)c4)nccn23)cc1 [Example 43, N-(2-(2-(4-fluoropiperidin-1-yl)ethoxy)ethyl)-4-((3-(4-methoxyphenyl)imidazo[1,2-a]pyrazin-8-yl)amino)-2-methylbenzamide]
0.52 µM | COc1ccc(-c2cnc3c(Nc4ccc(C(=O)N(C)CCOCCN5CC6(COC6)C5)c(C)c4)nccn23)cc1F [Example 108, 4-[[3-(3-fluoro-4-methoxyphenyl)imidazo[1,2-a]pyrazin-8-yl]amino]-N,2-dimethyl-N-[2-[2-(2-oxa-6-azaspiro [3.3]heptan-6-yl)ethoxy]ethyl] benzamide]
1 µM | Cc1cc(Nc2nccn3c(-c4ccc(OC(F)F)cc4)cnc23)ccc1C(=O)NCCOCCOCCOCCN=[N+]=[N-] [Example 139, N-[2-[2-[2-(2-azidoethoxy)ethoxy]ethoxy]ethyl]-4-[[3-[4-(difluoro-methoxy)phenyl]imidazo [1,2-a]pyrazin-8-yl]amino]-2-methylbenzamide]
0.44 µM | Cc1cc(Nc2nccn3c(-c4ccc(OCC#CCOCCN)cc4)cnc23)ccc1C(=O)NCCOCCN [Example 100, 4-[[3-[4-[4-(2-aminoethoxy)but-2-ynoxy]phenyl]imidazo[1,2-a]pyrazin-8-yl]amino]-N-[2-(2-aminoethoxy)ethyl]-2-methylbenzamide; formic acid]
0.8 µM | Cc1cc(Nc2nccn3c(-c4ccc(OC(F)F)cc4)cnc23)ccc1C(=O)NCCOCCN1CCNCC1 [Example 134, 4-[[3-[4-(difluoromethoxy)phenyl]imidazo [1,2-a]pyrazin-8-yl]amino]-2-methyl-N-[2-(2-piperazin-1-ylethoxy)ethyl] benzamide; hydrochloride]

same assay, conditions: Acinetobacter baumannii, ATCC17978, 16 h, read-out: ATCC 17978 IC90

SMILES | IC90
CCc1cc(Nc2nccn3c(-c4ccc(OC)c(F)c4F)cnc23)ccc1C(=O)NCCOCCNCC(=O)O [Example 70, 2-[2-[2-[[4-[[3-(2,3-difluoro-4-methoxy-phenyl)imidazo[1,2-a]pyrazin-8-yl]amino]-2-ethyl-benzoyl]amino]ethoxy]ethylamino]acetic acid; formic acid] | 0.49 µM
COc1ccc(-c2cnc3c(Nc4ccc(C(=O)NCCOCCN)c(C)c4)nccn23)cc1Cl [Example 30, N-(2-(2-aminoethoxy)ethyl)-4-((3-(3-chloro-4-methoxyphenyl)imidazo[1,2-a]pyrazin-8-yl)amino)-2-methylbenzamide hydrochloride] | 0.14 µM
